According to ChEMBL document CHEMBL4118193, “1,2,3,4,6-Penta-O-galloyl-β-d-glucose suppresses colon cancer through induction of tumor suppressor” (Bioorg Med Chem Lett, 2018):
The source made the active and inactive calls. The rule behind the calls is not given here.

Columns and labels:
[1] = tested on: HT-29; assay: Induction of apoptosis in human HT-29 cells assessed as cyclin E protein level at 1 uM after 48 hrs by Western blot method relative to beta-actin; type: functional
[2] = tested on: HT-29; assay: Cell cycle arrest in human HT-29 cells assessed as accumulation at subG1 phase after 48 hrs; type: functional, cell-based
[3] = tested on: HCT-116; assay: Induction of apoptosis in human HCT116 cells assessed as cyclin E protein level at 5 uM after 48 hrs by Western blot method relative to beta-actin; type: functional
[4] = tested on: HCT-116; assay: Induction of apoptosis in human HCT116 cells assessed as DNA fragmentation at 1 to 10 uM after 48 hrs by ELISA; type: functional, cell-based
[5] = tested on: HT-29; assay: Antiproliferative activity against human HT-29 cells at 1 to 10 uM after 48 hrs by CytoTox-96 non-radioactive assay; type: functional, cell-based
[6] = tested on: HCT-116; assay: Induction of apoptosis in human HCT116 cells assessed as caspase-3 protein level at 2.5 uM after 48 hrs by Western blot method relative to beta-actin; type: functional
[7] = tested on: HCT-116; assay: Induction of apoptosis in human HCT116 cells assessed as caspase-3 protein level at 1 uM after 48 hrs by Western blot method relative to beta-actin; type: functional
[8] = tested on: HCT-116; assay: Cytotoxicity against human HCT116 cells at 1 to 10 uM after 48 hrs by CytoTox-96 non-radioactive assay; type: functional, cell-based
[9] = tested on: CCD-18Co; assay: Cytotoxicity against human CCD-18Co cells at 1 to 10 uM after 48 hrs by CytoTox-96 non-radioactive assay; type: cell-based
[10] = tested on: HT-29; assay: Induction of apoptosis in human HT-29 cells assessed as cleaved caspase-3 protein level at 10 uM after 48 hrs by Western blot method relative to caspase-3; type: functional
[11] = tested on: HT-29; assay: Induction of apoptosis in human HT-29 cells assessed as caspase-3 protein level at 2.5 uM after 48 hrs by Western blot method relative to beta-actin; type: functional
[12] = tested on: HCT-116; assay: Induction of apoptosis in human HCT116 cells assessed as necrotic cells at 5 uM after 48 hrs by Annexin-V and dead cell assay (reference value: 0.10%); type: functional
[13] = tested on: HT-29; assay: Cell cycle arrest in human HT-29 cells assessed as accumulation at S phase at 10 uM after 48 hrs (reference value: 9.7%); type: functional
[14] = tested on: HCT-116; assay: Induction of apoptosis in human HCT116 cells assessed as Bcl-2 protein level at 2.5 uM after 48 hrs by Western blot method relative to beta-actin; type: functional
[15] = tested on: HCT-116; assay: Cell cycle arrest in human HCT116 cells assessed as accumulation at S phase at 5 uM after 48 hrs (reference value: 10.9%); type: functional
[16] = tested on: HT-29; assay: Induction of apoptosis in human HT-29 cells assessed as in p53 protein level at 2.5 uM after 48 hrs by Western blot method relative to beta-actin; type: functional
[17] = tested on: HT-29; assay: Induction of apoptosis in human HT-29 cells assessed as CDK2 protein level at 2.5 uM after 48 hrs by Western blot method relative to beta-actin; type: functional
[18] = tested on: HCT-116; assay: Induction of apoptosis in human HCT116 cells assessed as cleaved caspase-3 protein level at 1 uM after 48 hrs by Western blot method relative to caspase-3; type: functional
[19] = tested on: HT-29; assay: Induction of apoptosis in human HT-29 cells assessed as Bcl-2 protein level at 2.5 uM after 48 hrs by Western blot method relative to beta-actin; type: functional
[20] = tested on: HT-29; assay: Induction of apoptosis in human HT-29 cells assessed as cyclin E protein level at 2.5 uM after 48 hrs by Western blot method relative to beta-actin; type: functional
[21] = tested on: HCT-116; assay: Induction of apoptosis in human HCT116 cells assessed as late apoptotic cells at 5 uM after 48 hrs by Annexin-V and dead cell assay (reference value: 1.45%); type: functional
[22] = tested on: HCT-116; assay: Induction of apoptosis in human HCT116 cells assessed as late apoptotic cells at 2.5 uM after 48 hrs by Annexin-V and dead cell assay (reference value: 1.45%); type: functional
[23] = tested on: HCT-116; assay: Induction of apoptosis in human HCT116 cells assessed as late apoptotic cells at 10 uM after 48 hrs by Annexin-V and dead cell assay (reference value: 1.45%); type: functional
[24] = tested on: HCT-116; assay: Induction of apoptosis in human HCT116 cells assessed as early apoptotic cells at 2.5 uM after 48 hrs by Annexin-V and dead cell assay (reference value: 1.70%); type: functional
[25] = tested on: HCT-116; assay: Induction of apoptosis in human HCT116 cells assessed as early apoptotic cells at 1 uM after 48 hrs by Annexin-V and dead cell assay (reference value: 1.70%); type: functional
[26] = tested on: HCT-116; assay: Anticlonogenic activity against human HCT116 cells assessed as inhibition of colony formation after 4 to 5 days by crystal violet staining-based assay; type: functional, cell-based
[27] = tested on: HCT-116; assay: Cell cycle arrest in human HCT116 cells assessed as accumulation at G0/G1 phase at 10 uM after 48 hrs (reference value: 38.5%); type: functional
[28] = tested on: HCT-116; assay: Induction of apoptosis in human HCT116 cells assessed as in p53 protein level at 10 uM after 48 hrs by Western blot method relative to beta-actin; type: functional
[29] = tested on: HT-29; assay: Induction of apoptosis in human HT-29 cells assessed as DNA fragmentation at 1 to 10 uM after 48 hrs by ELISA; type: functional, cell-based
[30] = tested on: HCT-116; assay: Cell cycle arrest in human HCT116 cells assessed as accumulation at G0/G1 phase at 2.5 uM after 48 hrs (reference value: 38.5%); type: functional
[31] = tested on: HT-29; assay: Induction of apoptosis in human HT-29 cells assessed as in p53 protein level at 5 uM after 48 hrs by Western blot method relative to beta-actin; type: functional
[32] = tested on: HT-29; assay: Induction of apoptosis in human HT-29 cells assessed as p21 protein level at 10 uM after 48 hrs by Western blot method relative to beta-actin; type: functional
[33] = tested on: HT-29; assay: Cell cycle arrest in human HT-29 cells assessed as accumulation at G2/M phase at 5 uM after 48 hrs (reference value: 14.7%); type: functional
[34] = tested on: HT-29; assay: Cell cycle arrest in human HT-29 cells assessed as accumulation at S phase at 1 uM after 48 hrs (reference value: 9.7%); type: functional
[35] = tested on: HT-29; assay: Cell cycle arrest in human HT-29 cells assessed as accumulation at G2/M phase at 10 uM after 48 hrs (reference value: 14.7%); type: functional
[36] = tested on: HCT-116; assay: Cell cycle arrest in human HCT116 cells assessed as accumulation at S phase at 1 uM after 48 hrs (reference value: 10.9%); type: functional
[37] = tested on: HT-29; assay: Induction of apoptosis in human HT-29 cells assessed as p21 protein level at 1 uM after 48 hrs by Western blot method relative to beta-actin; type: functional
[38] = tested on: HT-29; assay: Induction of apoptosis in human HT-29 cells assessed as in p53 protein level at 10 uM after 48 hrs by Western blot method relative to beta-actin; type: functional
[39] = tested on: CCD-18Co; assay: Antiproliferative activity against human CCD-18Co cells at 1 to 10 uM after 48 hrs by CytoTox-96 non-radioactive assay; type: cell-based
[40] = tested on: HT-29; assay: Induction of apoptosis in human HT-29 cells assessed as in p21 protein level at 5 uM after 48 hrs by Western blot method relative to beta-actin; type: functional
[41] = tested on: HCT-116; assay: Induction of apoptosis in human HCT116 cells assessed as live cells at 5 uM after 48 hrs by Annexin-V and dead cell assay (reference value: 96.75%); type: functional

In the case of `O=C(OC[C@H]1O[C@@H](OC(=O)c2cc(O)c(O)c(O)c2)[C@H](OC(=O)c2cc(O)c(O)c(O)c2)[C@@H](OC(=O)c2cc(O)c(O)c(O)c2)[C@@H]1OC(=O)c1cc(O)c(O)c(O)c1)c1cc(O)c(O)c(O)c1` [PENTAGALLOYL GLUCOSE], the “fold change (FC)” value [1] is reported as 1.2, the Activity [2] is reported as “Dose-dependent effect” and the “fold change (FC)” value [3] is reported as 0.6. The Activity [4] was “Active”, the Activity [5] was “Active” and the “fold change (FC)” value [6] was 109.9. For the same compound, the “fold change (FC)” value [7] was 29.6, the Activity [8] was “Active” and the Activity [9] was “Non-Toxic”. For the same compound, the “fold change (FC)” value [10] was 5.7, the “fold change (FC)” value [11] was 4.7 and the Activity [12] was 0.45%. For the same compound, the Activity [13] was 13.9%, the “fold change (FC)” value [14] was 1.8 and the Activity [15] was 17.8%. For the same compound, the “fold change (FC)” value [16] was 4.4, the “fold change (FC)” value [17] was 0.9 and the “fold change (FC)” value [18] was 1. The “fold change (FC)” value [19] was 0.3, the “fold change (FC)” value [20] was 0.9 and the Activity [21] was 4.35%. The Activity [22] was 1%, the Activity [23] was 6.1% and the Activity [24] was 1.35%. The Activity [25] was 1%, the Activity [26] was “Dose-dependent effect” and the Activity [27] was 32.2%. The “fold change (FC)” value [28] was 8.1, the Activity [29] was “Active” and the Activity [30] was 34%. The “fold change (FC)” value [31] was 3, the “fold change (FC)” value [32] was 0.1 and the Activity [33] was 16.3%. The Activity [34] was 12.7%, the Activity [35] was 11.7% and the Activity [36] was 9.8%. For the same compound, the “fold change (FC)” value [37] was 2.4, the “fold change (FC)” value [38] was 6 and the Activity [39] was “Non-Toxic”. The “fold change (FC)” value [40] was 1.8 and the Activity [41] was 93.35%.
